Among the test systems are ACHN renal; CCRF-CEM leukemia; COLO 205 colon; EKVX NSCLC; HS 578T breast; NCI-H23 lung; SK-OV-3 ovarian; T-47D breast; TK-10 renal; UO-31 renal.
What all share (experiment): growth of human tumour cells (NCI), 48 h

Several values for one entry are separate records, joined by “and”; a condition that tells them apart may be missing. Equal values may be shown once.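 Five compound concentrations were applied to cells in 96-well plates for 48 hours; endpoints were derived by simple linear interpolation of the resulting dose-response curve. Abbreviation: GI50, concentration required for 50% inhibition of growth. At the TGI there is no net growth.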

As for `S=C=NCc1ccccc1`, the TGI with ACHN renal worked out at 12.7 µM; with CCRF-CEM leukemia, 2.48 µM; in the experiment on COLO 205 colon, 4.78 µM; in the experiment with EKVX NSCLC it was 28.4 µM; with HS 578T breast, 53.6 µM; in the experiment with NCI-H23 lung, 15.2 µM. In addition, the TGI with SK-OV-3 ovarian is 25.1 µM; in the experiment on T-47D breast, 33.3 µM; in the experiment with TK-10 renal, 12.2 µM; in the experiment with UO-31 renal, 6.74 µM.
With `Nc1ncnc2c(C3OC(CO)C(O)C3O)[nH]nc12` (stereo not given), the GI50 with ACHN renal was 0.0944 µM; in the experiment with CCRF-CEM leukemia, 4.68 µM and 2.77 µM; with COLO 205 colon, 2.99 µM; in the experiment on EKVX NSCLC, 1.6 µM; with HS 578T breast, 0.533 µM; with NCI-H23 lung, 0.659 µM. For the same compound, the GI50 with SK-OV-3 ovarian was 0.0323 µM and 0.0738 µM; in the experiment with T-47D breast, 0.0308 µM; in the experiment with TK-10 renal, 0.0778 µM; in the experiment on UO-31 renal, 0.0619 µM. The TGI in the experiment with CCRF-CEM leukemia is 73.9 µM; with COLO 205 colon, 15.7 µM and 11.7 µM; in the experiment on HS 578T breast it was 5.34 µM; in the experiment with NCI-H23 lung, 10.5 µM and 16.4 µM; in the experiment with SK-OV-3 ovarian it was 0.241 µM and 0.6 µM; in the experiment with T-47D breast, 1.57 µM. The compound also displayed a TGI with TK-10 renal of 2.48 µM.
Consider `Nc1nc(N)c2c(ccc3nccc32)[nH]1`, for which the GI50 with ACHN renal is 4.24 µM; in the experiment with CCRF-CEM leukemia, 1.57 µM; with COLO 205 colon, 8.03 µM; in the experiment on EKVX NSCLC, 2.22 µM; with HS 578T breast it was above 21.8 µM; in the experiment on NCI-H23 lung it was 6.46 µM. Further, the GI50 in the experiment with SK-OV-3 ovarian was 18.4 µM; with T-47D breast it was 14.9 µM; in the experiment with TK-10 renal it was 17.4 µM; in the experiment with UO-31 renal, 4.14 µM. Further, the TGI in the experiment on ACHN renal is 36 µM; with CCRF-CEM leukemia, above 100 µM; in the experiment on COLO 205 colon it was 50.9 µM; in the experiment on EKVX NSCLC, above 100 µM; in the experiment on HS 578T breast, above 64.7 µM; with NCI-H23 lung, above 100 µM. Further, the TGI was above 81.5 µM in the experiment on SK-OV-3 ovarian, above 80 µM in the experiment on T-47D breast, above 86.8 µM in the experiment with TK-10 renal and 31.1 µM with UO-31 renal.
For `Cc1cc2c3ccccc3ccc2[n+]2ccccc12`, the GI50 in the experiment on ACHN renal was 29.4 µM; in the experiment on CCRF-CEM leukemia, 4.72 µM; with COLO 205 colon, 1.95 µM; in the experiment with EKVX NSCLC, 1.22 µM; in the experiment on HS 578T breast, 2.6 µM; with NCI-H23 lung, 2.57 µM. For the same compound, the GI50 in the experiment on SK-OV-3 ovarian is 10.7 µM; with T-47D breast, 1.86 µM; with TK-10 renal, 19.7 µM; with UO-31 renal, 3.73 µM. In addition, the TGI in the experiment with ACHN renal was above 100 µM; with CCRF-CEM leukemia, 35.2 µM; with COLO 205 colon, 8.31 µM; with EKVX NSCLC it was above 33.4 µM; in the experiment with HS 578T breast, 17.2 µM; in the experiment with NCI-H23 lung, 19.3 µM. Also, the TGI with SK-OV-3 ovarian is 73.3 µM; in the experiment on T-47D breast it was 6.8 µM; in the experiment with TK-10 renal, above 86.8 µM; with UO-31 renal it was above 100 µM.
For the compound `Nc1c(C(=O)c2cccc(CCC3(O)CCCC3)c2)cnn1-c1ccc(F)cc1`, the GI50 with ACHN renal was above 21 µM; in the experiment on CCRF-CEM leukemia, 18.8 µM; with COLO 205 colon, 16.6 µM; in the experiment on HS 578T breast, 12.7 µM; in the experiment with NCI-H23 lung, 14.6 µM; with SK-OV-3 ovarian, above 25 µM. The figures for the GI50 in the experiment with T-47D breast, with TK-10 renal and in the experiment on UO-31 renal were 6.52 µM, 18.8 µM and 8.21 µM, respectively. The TGI with ACHN renal, in the experiment on CCRF-CEM leukemia, in the experiment on COLO 205 colon, in the experiment on HS 578T breast, in the experiment on NCI-H23 lung and with SK-OV-3 ovarian was above 25 µM in each case. Further, the TGI with T-47D breast, with TK-10 renal and in the experiment with UO-31 renal was above 25 µM each time.
In the case of `C#C[C@@]1(O)[C@@H](CO)O[C@@H](n2ccc3c(N)ncnc32)[C@@H]1O`, the GI50 with ACHN renal is 0.56 µM; in the experiment on CCRF-CEM leukemia, 2.3 µM; with COLO 205 colon, 0.679 µM; in the experiment on EKVX NSCLC, 1.52 µM; in the experiment with HS 578T breast, 4.67 µM; in the experiment on NCI-H23 lung, 1.18 µM. Besides, the GI50 in the experiment on SK-OV-3 ovarian was 1.07 µM; in the experiment with T-47D breast it was 0.445 µM; with TK-10 renal, 2.65 µM. Also, the TGI is 4.48 µM in the experiment with ACHN renal; above 100 µM in the experiment with CCRF-CEM leukemia; 2.67 µM in the experiment with COLO 205 colon; 5.43 µM in the experiment on EKVX NSCLC; above 100 µM with HS 578T breast; 4.32 µM in the experiment on NCI-H23 lung. The TGI is 5.24 µM in the experiment on SK-OV-3 ovarian, 2.14 µM in the experiment with T-47D breast and 9.48 µM in the experiment with TK-10 renal.
Turning to `OCCNc1ncnc2c1ncn2C1OC(CO)C(O)C1O` (stereo not given), the TGI in the experiment with ACHN renal, in the experiment with CCRF-CEM leukemia, in the experiment on COLO 205 colon, in the experiment on EKVX NSCLC, with HS 578T breast and with NCI-H23 lung was above 100 µM throughout. For the same compound, the TGI in the experiment with SK-OV-3 ovarian, in the experiment on T-47D breast, with TK-10 renal and in the experiment with UO-31 renal was above 100 µM each time.
In the case of `Cc1cccc(NC(=O)CCl)c1`, the TGI in the experiment on ACHN renal is above 10 µM; with CCRF-CEM leukemia, 8.83 µM; with COLO 205 colon, above 10 µM; in the experiment with EKVX NSCLC, above 10 µM; in the experiment on HS 578T breast it was above 10 µM; in the experiment with NCI-H23 lung, above 10 µM. Besides, the TGI in the experiment on SK-OV-3 ovarian, with T-47D breast and with TK-10 renal was above 10 µM in each case.
Turning to `COc1ccc(/C=C/C(=O)c2ccc3cc(OC)c(OC)cc3c2)cc1OC`, the GI50 in the experiment with ACHN renal was 3.81 µM; with CCRF-CEM leukemia, 3.03 µM; in the experiment on COLO 205 colon, 4.1 µM; with HS 578T breast, 3.77 µM; with NCI-H23 lung, 6.9 µM; in the experiment with SK-OV-3 ovarian, 4.41 µM. Further, the GI50 in the experiment on T-47D breast is 2.93 µM; in the experiment with TK-10 renal, 3.17 µM; with UO-31 renal, 2.85 µM. Further, the TGI in the experiment with ACHN renal was above 100 µM; with CCRF-CEM leukemia, 31.6 µM; in the experiment with COLO 205 colon it was 13.2 µM; with HS 578T breast, 41.2 µM; in the experiment with NCI-H23 lung, 32 µM; with SK-OV-3 ovarian, 83.5 µM. The TGI is 33.5 µM in the experiment on T-47D breast, 9.97 µM in the experiment on TK-10 renal and 12.7 µM in the experiment with UO-31 renal.

The values are drawn from PubChem BioAssay (NCI).
